The format of series [1] is physicochemical. The note with it: 48 h. The method, then: (§1) HPLC: standard UV peak Rt=10.548 min, radioactive peak Rt=10.809 min, corresponding to the peak position of the standard.
Series [2] can be described thus: In vitro stability of labeled product in mouse serum (radiochemical purity after 48 h). Type of series: in vitro ADME. As for the experimental part: as §1
A further series relates to LNCap tumor-bearing mice. The series is described as follows: PET imaging after tail vein injection. Type of series: in vivo. The following applies: single intravenous administration, 200 μCi. As for the experimental part: Method: LNCap tumor-bearing mice were injected with the complex ^89Zr-Dar-PSMA-617 (200 μCi) prepared in Example 9 through tail vein, while dynamic scan was performed for 60 min during the administration, and static whole body scan was performed for 10 min at different time points during 2-216 h after the administration. Refer to FIG. 1 for the mouse PET scanning image.
Method: LNCap tumor-bearing mice were injected with the complex (200 μCi) prepared in Example 7 through tail vein, dynamic scan was performed for 60 min during the administration, and the static whole body scan was performed for 10 min at different time points of 2-192 h after the administration. Refer to FIG. 2 for the mouse PET scanning image.
Method: LNCap tumor-bearing mice were injected with the complex ^68Ga-Dar-PSMA-617 (200 μCi) prepared in Example 10 through tail vein, dynamic scan was performed for 60 min during the administration, and the static whole body scan was performed for 10 min at different time points of 2-6 h after the administration. Refer to FIG. 3 for the mouse PET scanning image.

For series [3] the following is noted: male, SD, rat, in vivo, iv.
Method: About 0.1-0.2 mL of blood was collected from jugular vein plexus of the experimental animals at 5 min, 15 min, 30 min, 1 h, 2 h, 3 h, 4 h, 5 h, 6 h, 8 h, 12 h, 24 h, 48 h, 72 h, 96 h, 120 h, 144 h, and 168 h after the administration, and the rats were weighed for subsequent assay. Blood was collected from 6 males in each group at each time point, and 12 animals were cross-sampled. Each sample was subjected to gamma counting for 30 s.
Series [4] deals with LNCap cells. The series is described as follows: Experiment A cell uptake experiment (cell binding rate). Type of series: cell-based. The following applies: for uptake rate of the blocking group: unlabeled ligand 200 times that of labeled subject; for uptake rate: 37° C. As for the experimental part:
(§2) LNCap cells were cultured to logarithmic growth phase. After digestion with pancreatin, the resultant mixture was adjusted with complete medium into a cell suspension with a cell density of […]. Cells were inoculated in 24-well plate with 0.5-1.0 mL cells per well and the number of 1×10^5 cells per well (inoculated 2 d in advance for cell experiment). ^177Lu-Dar, ^177Lu-Dar-PSMA-617, ^177Lu-DOTA, and ^177Lu-DOTA-PSMA-617 were respectively diluted with a basic medium (with 1% HSA added) to 10 μCi/mL for subsequent use.
Unlabeled ligands Dar, DOTA, Dar-PSMA-617, and DOTA-PSMA-617 were respectively formulated to be 10 μg/mL and 25 μg/mL with basic medium (with 1% HSA added) for subsequent use.
(§3) Cells were incubated in 37° C. incubator for 1 h, 4 h, and 24 h.
Uptake experiment: blocking groups were set in cell uptake experiment, and unlabeled ligands were added in an amount of 200 times that of labeled subjects. After incubation was completed, the cell suspension was collected, followed by centrifugation at 1500 rpm for 5 min, cell pellet was collected, the supernatant was removed, the cell pellet was washed once with 0.5 mL of pre-cooled PBS, and the resultant cell pellet was collected.
(§4) Cell pellet was collected for gamma counting. Both the blank and standard tubes were assayed simultaneously in each test.
Cell binding rate=CPM of the cell lysate/CPM of the standard tube×100%

Series [5] concerns LNCap cells. The series is described as follows: Experiment A internalization experiment. Format: cell-based. As for the experimental part: as §2, §3
Internalization experiment: after incubation was completed, the cell suspension was collected, 0.5 mL of pre-cooled pickling solution was added, after incubation for 1 min at room temperature, the pickling solution was removed; and the resultant mixture was washed once with 0.5 mL of PBS, and cell pellet was collected.
as §4
Cell internalization rate=CPM of the cell lysate after acid pickling/CPM of the uptake experiment cell lysate×100%

For series [6], the system named is LNCap cells. In words: Experiment A efflux experiment. Format: cell-based. The following applies: then 24 h in complete medium. The method, then:
as §2, §3
Efflux experiment: after the incubation was completed, the cell suspension was collected, washed once with 0.5 mL of complete medium, added with 0.5 mL of complete medium, after resuspension, the resultant mixture was placed into original wells, incubated at 37° C. for 24 h, and then the supernatant was collected, and washed once with 0.5 mL of PBS. Cell pellet was collected after centrifugation of the supernatant and PBS washing solution; and 0.5 mL of 1 M lysis solution was utilized to digest and lyse cells in the original wells, and combined with the cell pellet.
as §4
Cell efflux rate=CPM of the efflux experiment cell lysate/CPM of the uptake experiment cell lysate×100%

In series [7] the test system is LNCap tumor-bearing mice animal models. The series is described as follows: ^177Lu-Dar-PSMA-617 treatment study (tumor size, body weight, clinical observation). Format: in vivo. The method, then: LNCap tumor-bearing mice animal models were used.
Experimental Groups: • (A)^177Lu-Dar-PSMA-617 low dosage 0.25 mCi (n=7); • (B)^177Lu-Dar-PSMA-617 medium dosage 0.5 mCi (n=10); • (C)^177Lu-Dar-PSMA-617 high dosage 1 mCi (n=10).
Positive Control Groups: • (D)^177Lu-DOTA-PSMA-617 0.5 mCi (n=7); • (E)^177Lu-DOTA-PSMA-617 1 mCi (n=10).
Negative Control Groups: • (F) ^177LuCl3 1 mCi (n=10); • (G) normal saline (n=10)
Method: the day of administration was recorded as D-0, and body weight and tumor size were measured every day or every other day. After administration of ^177Lu-Dar-PSMA-617 (Group C), SPECT scan was performed at 4 h, 24 h, 72 h, 120 h, and 240 h after the administration; the control groups ^177Lu-DOTA-PSMA-617 (Group E) and ^177LuCl3 (Group F) were respectively subjected to SPECT scan at 2 h, 24 h, 72 h, and 120 h (240 h) (refer to FIG. 7, group C, group E, and group F in sequence from top to bottom). The animals were kept stationary, and CT scan was completed before/after the SPECT scan. Prior to the scan, the animals were subjected to respiratory anesthesia with isoflurane through an anesthesia machine, and the animals having undergone anesthesia induction were placed on a SPECT/CT bed. During the scan, the animals continuously inhaled isoflurane to maintain anesthesia effect. Each bed was statically scanned for 10-30 min and scan time was recorded.

In series [8] the test system is MC38/MC38-hPDL1 bilateral tumor-bearing mice. In words: ^89Zr-Dar-KN035 PET imaging study. Type of series: in vivo. As for the experimental part: Method: MC38/MC38-hPDL1 bilateral tumor-bearing mice were injected with the ^89Zr-Dar-KN035 (100 μCi) through tail vein, wherein MC38 was a tumor low-expressing PDL1, and MC38-hPDL1 was a tumor high-expressing PDL1. Dynamic scan was performed for 60 min during the administration, and static whole body scan was performed for 10 min at different time points of 1-168 h after the administration. A mouse PET scanning image is shown in FIG. 10, with MC38 on the left and MC38-hPDL1 on the right.

`Cc1cc2c(O)c(c1)CN(CC(=O)O)Cc1cccc(n1)CN(CC(=O)NC[C@H]1CC[C@H](C(=O)N[C@@H](Cc3ccc4ccccc4c3)C(=O)NCCCC[C@H](NC(=O)N[C@@H](CCC(=O)O)C(=O)O)C(=O)O)CC1)Cc1cc(C)cc(c1O)CN(CC(=O)O)Cc1cccc(n1)CN(CC(=O)O)C2` [^89Zr-Dar-PSMA-617, metal not drawn]: the “radiochemical purity after incubation in normal saline” value in series [1] (normal saline, 37° C. water bath incubator) was 98%. In addition, the “radiochemical purity after being placed at room temperature” value in [1] (room temperature) is 98%. In addition, the “radiochemical purity after incubation in mouse serum” value in series [2] stood at 96%. Further, the “main distribution of radioactive substances” value with LNCap tumor-bearing mice was “mainly distributed in the bladder and kidneys”. The “half-life period in blood” value in series [3] was 4.57 h.

For the molecule `O=C([O-])CN1CCN(CC(=O)[O-])CCN(CC(=O)[O-])CCN(CC(=O)[O-])CC1.[177Lu+3].[H+]` [^177Lu-DOTA], the “uptake rate of the blocking group” value with LNCap cells [4] (1 h) worked out at 0.26%; with LNCap cells [4] (4 h) it was 0.24%; with LNCap cells [4] (24 h), 1.97%. For the same molecule, the results for the uptake rate in the series with LNCap cells [4] (1 h incubation), with LNCap cells [4] (4 h incubation) and with LNCap cells [4] (24 h incubation) were 0.22%, 0.20% and 2.01%, respectively. Also, the internalization rate is recorded as 35.46% in the series on LNCap cells [5] (1 h incubation), 165.46% with LNCap cells [5] (4 h incubation) and 8.33% with LNCap cells [5] (24 h incubation). Moreover, the efflux rate in the series with LNCap cells [6] (1 h incubation) is 76.83%; in the series with LNCap cells [6] (4 h incubation) it was 63.22%; with LNCap cells [6] (24 h incubation) it was 9.38%.

On to `[177Lu+3].[Cl-].[Cl-].[Cl-]` [^177LuCl3], for which, in series [7] (1 mCi (Group C, Group F)), the body weight change result is recorded as “decrease rapidly”. For the same molecule, in series [7] (1 mCi (Group F)), the “adverse effects (conclusion)” value is “severe adverse effects”; the “gross anatomy of dead mice” value is “skeletal darkening and blood stasis of bone marrow”. Further, in series [7] (1 mCi (Group F), starting from D-5, all animals at the later stage), the animal clinical observation result is “weight loss and arched back”.

B1: ^89Zr-Dar-KN035 (conjugate, chains of the INN, looked up)
VH: QVQLVESGGGLVQPGGSLRLSCAASGKMSSRRCMAWFRQAPGKERERVAKLLTTSGSTYLADSVKGRFTISRDNSKNTVYLQMNSLRAEDTAVYYCAADSFEDPTCTLVTSSGAFQYWGQGTLVTVSS
modifications: 89Zr with Dar chelator
Take B1: in series [8] (100 μCi tail vein, PET 1-168 h), the “uptake in tumor high-expressing PDL1 (MC38-hPDL1)” value was “significantly taken up” and the “uptake in tumor low-expressing PDL1 (MC38)” value is reported as “almost not taken up”. The tumor selectivity result in series [8] (MC38-hPDL1 versus MC38) is listed as “good tumor selectivity”.

For the origin of these results see US20230381348A1, “BIFUNCTIONAL MACROCYCLIC CHELATE, CONJUGATE, METAL COMPLEX AND USE THEREOF” (Jyams Pet Research & Development Limited, priority 2021, published 2023).
